This is an account of results in PMC5676206, “Biosynthesis of methyl-proline containing griselimycins, natural products with anti-tuberculosis activity” (Chemical Science, 2017).

For one test, the target named is T1, GriF (Streptomyces muensis, UniProt A0A0E3URI1).
T1 construct: recombinant, produced in E. coli
T1 sequence (A0A0E3URI1 1-391): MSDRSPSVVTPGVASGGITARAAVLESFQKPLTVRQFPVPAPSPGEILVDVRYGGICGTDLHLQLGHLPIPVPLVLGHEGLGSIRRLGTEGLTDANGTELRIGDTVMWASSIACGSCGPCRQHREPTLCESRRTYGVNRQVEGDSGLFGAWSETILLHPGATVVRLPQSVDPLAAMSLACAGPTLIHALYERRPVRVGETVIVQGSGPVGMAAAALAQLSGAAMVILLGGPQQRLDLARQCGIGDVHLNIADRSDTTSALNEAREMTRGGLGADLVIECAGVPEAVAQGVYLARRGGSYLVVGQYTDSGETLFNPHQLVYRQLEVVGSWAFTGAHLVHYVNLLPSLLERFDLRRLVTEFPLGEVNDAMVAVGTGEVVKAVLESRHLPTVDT
Nature of the test: LC-MS of product. The test is classed as biochemical. The following applies: NAD+, ZnSO4; product cyclizes to the pyrroline.

In the next test the target is T2, GriE (Streptomyces muensis, UniProt A0A0E3URV8).
T2 construct: recombinant, produced in E. coli
T2 sequence (A0A0E3URV8 1-270): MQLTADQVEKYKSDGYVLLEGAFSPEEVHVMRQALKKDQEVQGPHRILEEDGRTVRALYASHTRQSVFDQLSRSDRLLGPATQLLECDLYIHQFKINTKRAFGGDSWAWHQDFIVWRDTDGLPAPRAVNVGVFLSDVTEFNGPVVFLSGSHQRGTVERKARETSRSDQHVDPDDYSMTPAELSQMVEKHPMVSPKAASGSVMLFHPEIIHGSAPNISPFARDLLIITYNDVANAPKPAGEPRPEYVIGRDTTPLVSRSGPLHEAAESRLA
Nature of the test: X-ray crystallography. The format is binding.

The mark [1] stands for this setting: co-crystallized with Mn2+, L-leucine and alpha-ketoglutarate, turned over in the crystal set-up, 1.53 Å.

Turning to `C[C@@H](CO)C[C@H](N)C(=O)O` [(2S,4R)-5-hydroxyleucine], the LC-MS of product entry on GriF was “incubation of recombinant GriF with 5-hydroxyleucine, ZnSO4 and NAD^+ was unstable”. For the same molecule, the X-ray crystallography result on GriE (setting [1]) was “electron density clearly confirms 5-hydroxyleucine to be the postulated (2S,4R)-diastereomer”.
On to `CC(C)C[C@H](N)C(=O)O` [L-leucine], for which the X-ray crystallography result at GriE (co-crystallized with Co2+ in place of Fe2+ and alpha-ketoglutarate, 1.76 Å, active site, no direct metal contact) was “unambiguously revealed bound metal and both L-leucine and α-ketoglutarate”.
In the case of `O=C(O)CCC(=O)O` [succinate], the X-ray crystallography result on GriE (setting [1]) is reported as “succinate coordinates the metal with one carboxylate oxygen”.
